Source: patent publication US10463651B2, “3-(1H-pyrrolo[3,2-C]pyridin-2-YL)-1H-indazoles and therapeutic uses thereof” (Samumed, LLC, priority 2015, dated 2019)

Columns and labels:
Format in all cases: cell-based
[1] = system: Wnt activity (Sp5-Luc reporter, SW480 colon carcinoma cells); experiment: Screening assay for Wnt activity (Sp5-Luc reporter gene assay in SW480 cells); conditions: Homo sapiens; for EC50: Sp5-Luc reporter, SW480 cells, incubated overnight; for inhibition at 10 µM: SW480, read-out: percent inhibition at 10 μM
Outline: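 SW480 colon carcinoma cells stably carrying Sp5 promoter (eight TCF/LEF sites)-driven firefly luciferase, plated at 4,000 cells/well in 1% FBS medium and incubated overnight at 37° C. Luminescence normalised to DMSO-only cells; EC50 from four-parameter variable-slope nonlinear regression.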

SW480 colon cancer cells = experiment: Cell viability assay (CellTiter-Blue); conditions: Homo sapiens; for EC50: 96 h, SW480 cell viability, four days, CellTiter-Blue; for inhibition at 10 µM: SW480, 96 h, read-out: percent inhibition at 10 μM
Outline: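 Fluorescence from resazurin reduced to resorufin by metabolically active cells was the read-out, taken after ~3 h with CellTiter-Blue.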

[2] = system: primary human fibroblasts derived from IPF patients (LL29 cells) treated with TGF-β1; experiment: Inhibition of the fibrotic process (αSMA staining) in TGF-β1-treated fibroblasts; conditions: Fibroblast, 96 h; for EC50: % αSMA-positive LL29 cells, TGF-β1 20 ng/mL, 4 days; for inhibition at 10 µM: read-out: percent inhibition at 10 μM
Outline: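 LL29 fibroblasts from IPF patients, 1,500 cells/well in F12 with 1% FBS, stimulated with TGF-β1; TGF-β1 plus DMSO wells as controls. Incubation 4 days, then SYTOX green 1 μM final for 30 min at room temperature. Fibrotic response read as αSMA staining.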

[3] = system: primary human mesenchymal stem cells (hMSCs); experiment: Induction of chondrogenesis in hMSCs (Rhodamine B / Nile Red nodule imaging); conditions: for EC50: concentration required to induce 50% levels of chondrogenesis vs TGF-β3 positive control, read-out: Conc (nM) of 50% TGF-β3 activity; for Emax: maximum activity relative to TGF-β3 (10 ng/mL) positive control, read-out: Max. Activity as % TGF-β3 activity
Outline: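 Primary hMSCs at passage 3-6 were treated with compound; nodule area per well was normalized to the mean of 3 DMSO wells, averaged over 2-3 replicates, and the concentration giving 50% chondrogenesis relative to TGF-β3 control, plus maximum activity and its dose, was derived.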

IL-6 (THP-1 cells) = experiment: IL-6 inhibition in LPS-stimulated THP-1 cells (HTRF); conditions: Homo sapiens; for EC50: IL6 by HTRF, THP-1 cells, 500 ng/mL LPS, 22 hours; for inhibition at 10 µM: THP-1, read-out: percent inhibition at 10 M
Outline: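 THP-1 cells, pre-cultured 24 h in 1% FBS medium, treated with compound 2 h at 37 °C, then stimulated with 500 ng/mL LPS for 22 h. Secreted IL-6 measured by HTRF as the 665/620 nm ratio. Values normalized to DMSO; EC50 from four-parameter fit, duplicates.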

Compound	EC50 [1]	EC50 (SW480 colon cancer cells)	EC50 [2]	EC50 [3]	Emax [3]	EC50 (IL-6 (THP-1 cells))	inhibition at 10 µM (IL-6 (THP-1 cells))	inhibition at 10 µM [1]	inhibition at 10 µM (SW480 colon cancer cells)	inhibition at 10 µM [2]
CC(C)(C)CC(=O)Nc1cncc(-c2ccc3[nH]nc(-c4cc5cnccc5[nH]4)c3c2)c1 [Compound 268, N-(5-(3-(1H-Pyrrolo[3,2-c]pyridin-2-yl)-1H-indazol-5-yl)pyridin-3-yl)-3,3-dimethylbutanamide]	120 nM	236 nM	199 nM	10 nM	208%	94 nM				
CCCCC(=O)Nc1cncc(-c2ccc3[nH]nc(-c4cc5cnccc5[nH]4)c3c2)c1 [Compound 271, N-(5-(3-(1H-Pyrrolo[3,2-c]pyridin-2-yl)-1H-indazol-5-yl)pyridin-3-yl)pentanamide]	275 nM	491 nM	192 nM	900 nM	67%	149 nM				
O=C(Nc1cncc(-c2ccc3[nH]nc(-c4cc5cnccc5[nH]4)c3c2)c1)C1CCC1 [Compound 273, N-(5-(3-(1H-Pyrrolo[3,2-c]pyridin-2-yl)-1H-indazol-5-yl)pyridin-3-yl)cyclobutanecarboxamide]	75 nM	441 nM	95 nM	10 nM	213%	118 nM				
O=C(Nc1cncc(-c2ccc3[nH]nc(-c4cc5cnccc5[nH]4)c3c2)c1)C1CCCCC1 [Compound 275, N-(5-(3-(1H-Pyrrolo[3,2-c]pyridin-2-yl)-1H-indazol-5-yl)pyridin-3-yl)cyclohexanecarboxamide]	285 nM	255 nM	110 nM	30 nM	155%	77 nM				
c1cc2[nH]c(-c3n[nH]c4ccc(-c5cncnc5)cc34)cc2cn1 [Compound 279, 5-(Pyrimidin-5-yl)-3-(1H-pyrrolo[3,2-c]pyridin-2-yl)-1H-indazole]	1480 nM	2300 nM	686 nM		22%	1840 nM				
Cc1ccncc1-c1ccc2[nH]nc(-c3cc4c(-c5ccoc5)nccc4[nH]3)c2c1 [Compound 313, 3-(4-(Furan-3-yl)-1H-pyrrolo[3,2-c]pyridin-2-yl)-5-(4-methylpyridin-3-yl)-1H-indazole]	614 nM	1580 nM	286 nM	2700 nM	153%	649 nM				
c1cc2[nH]c(-c3n[nH]c4ccc(-c5cncc(CN6CCCCC6)c5)cc34)cc2c(-c2ccoc2)n1 [Compound 323, 3-(4-(Furan-3-yl)-1H-pyrrolo[3,2-c]pyridin-2-yl)-5-(5-(piperidin-1-ylmethyl)pyridin-3-yl)-1H-indazole]	890 nM	3420 nM	1150 nM	10 nM	177%	> 10000 nM	16.6%			
c1ncc(-c2ccc3[nH]nc(-c4cc5c(-c6ccoc6)nccc5[nH]4)c3c2)cn1 [Compound 335, 3-(4-(Furan-3-yl)-1H-pyrrolo[3,2-c]pyridin-2-yl)-5-(pyrimidin-5-yl)-1H-indazole]	1910 nM	438 nM	349 nM		40%	508 nM				
Cc1ccncc1-c1ccc2[nH]nc(-c3cc4c(-c5cc(F)cc(CNS(C)(=O)=O)c5)nccc4[nH]3)c2c1 [Compound 481, N-(3-Fluoro-5-(2-(5-(4-methylpyridin-3-yl)-1H-indazol-3-yl)-1H-pyrrolo[3,2-c]pyridin-4-yl)benzyl)methanesulfonamide]	304 nM	500 nM	528 nM	300 nM	267%	103 nM				
CC(C)Nc1cncc(-c2ccc3[nH]nc(-c4cc5c(-c6cc(F)cc(CNS(C)(=O)=O)c6)nccc5[nH]4)c3c2)c1 [Compound 488, N-(3-Fluoro-5-(2-(5-(5-(isopropylamino)pyridin-3-yl)-1H-indazol-3-yl)-1H-pyrrolo[3,2-c]pyridin-4-yl)benzyl)methanesulfonamide]	151 nM	358 nM	125 nM	300 nM	191%	40 nM				
CS(=O)(=O)NCc1cc(F)cc(-c2nccc3[nH]c(-c4n[nH]c5ccc(-c6ccncc6)cc45)cc23)c1 [Compound 494, N-(3-Fluoro-5-(2-(5-(pyridin-4-yl)-1H-indazol-3-yl)-1H-pyrrolo[3,2-c]pyridin-4-yl)benzyl)methanesulfonamide]	> 10000 nM	> 10000 nM	> 10000 nM	900 nM	66%	> 10000 nM	44.6%	19%	9.5%	0%
CS(=O)(=O)NCc1cc(F)cc(-c2nccc3[nH]c(-c4n[nH]c5ccc(-c6cncc(CN7CCC(F)(F)C7)c6)cc45)cc23)c1 [Compound 502, N-(3-(2-(5-(5-((3,3-Difluoropyrrolidin-1-yl)methyl)pyridin-3-yl)-1H-indazol-3-yl)-1H-pyrrolo[3,2-c]pyridin-4-yl)-5-fluorobenzyl)methanesulfonamide]	172 nM	230 nM	160 nM	300 nM	175%	63 nM				
CS(=O)(=O)NCc1cc(F)cc(-c2nccc3[nH]c(-c4n[nH]c5ccc(-c6cncnc6)cc45)cc23)c1 [Compound 503, N-(3-Fluoro-5-(2-(5-(pyrimidin-5-yl)-1H-indazol-3-yl)-1H-pyrrolo[3,2-c]pyridin-4-yl)benzyl)methanesulfonamide]	3080 nM	> 10000 nM	> 10000 nM		40%	35 nM			32.7%	15.5%
Cc1ncc(-c2ccc3[nH]nc(-c4cc5c(-c6ccncc6)nccc5[nH]4)c3c2)n1C [Compound 573, 5-(1,2-Dimethyl-1H-imidazol-5-yl)-3-(4-(pyridin-4-yl)-1H-pyrrolo[3,2-c]pyridin-2-yl)-1H-indazole]	1240 nM	4020 nM	9980 nM		36%	> 10000 nM	38.8%			
CN1CCN(c2nccc3[nH]c(-c4n[nH]c5ccc(-c6cncc(NC(=O)CC7CCNCC7)c6)cc45)cc23)CC1 [Compound 641]	> 10000 nM	> 10000 nM	9900 nM		43%	> 10000 nM	28.7%	0%	20.9%	
c1cc2[nH]c(-c3n[nH]c4ccc(-c5cncc(OCCN6CCCC6)c5)cc34)cc2cn1 [Compound 658, 5-(5-(2-(Pyrrolidin-1-yl)ethoxy)pyridin-3-yl)-3-(1H-pyrrolo[3,2-c]pyridin-2-yl)-1H-indazole]	1860 nM	552 nM	338 nM	30 nM	198%	1160 nM				
COc1cncc(-c2ccc3[nH]nc(-c4cc5c(-c6ccsc6)nccc5[nH]4)c3c2)c1 [Compound 676, 5-(5-Methoxypyridin-3-yl)-3-(4-(thiophen-3-yl)-1H-pyrrolo[3,2-c]pyridin-2-yl)-1H-indazole]	808 nM	500 nM	2100 nM		39%	9120 nM				
COc1cncc(-c2ccc3[nH]nc(-c4cc5c(-c6ccoc6)nccc5[nH]4)c3c2)c1 [Compound 692, 3-(4-(Furan-3-yl)-1H-pyrrolo[3,2-c]pyridin-2-yl)-5-(5-methoxypyridin-3-yl)-1H-indazole]	309 nM	227 nM	741 nM		20%	4530 nM				
